Patent US10968203B2, “Pyrimidinyl-pyridyloxy-naphthyl compounds and methods of treating IRE1-related diseases and disorders” (Genentech, Inc., priority 2017, dated 2021)
Where a name gives a salt, the structure may show the parent alone.

Each compound was assayed on XBP1s-luc 293 LUC (assay: cellular PD assay, XBP1s-LUC reporter (Example 903)). Conditions: Table 1; read-out: XBP1s-luc 293 LUC (IC50).
Type: cell-based
Method in brief: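 Cellular IRE1α pathway activity was quantified from the luciferase signal of an XBP1-Luc reporter, where the luciferase fusion is in frame and expressed only from the spliced XBP1 transcript.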

Compound	IC50 [nM]
CCCS(=O)(=O)Nc1cccc2c(Oc3ncc(Cl)cc3-c3ccnc(N[C@H]4CCCNC4)n3)c(C)ccc12 [Example 385, (S)—N-(5-((5-Chloro-3-(2-(piperidin-3-ylamino)pyrimidin-4-yl)pyridin-2-yl)oxy)-6-methylnaphthalen-1-yl)propane-1-sulfonamide]	366
Cc1ccc2c(Nc3ccn(C)n3)c(F)ccc2c1Oc1ncccc1-c1ccnc(N[C@H]2CCCNC2)n1 [Example 359, (S)-4-(2-((6-Fluoro-2-methyl-5-((1-methyl-1H-pyrazol-3-yl)amino)naphthalen-1-yl)oxy)pyridin-3-yl)-N-(piperidin-3-yl)pyrimidin-2-amine]	438
Cc1ccc2c(NS(=O)(=O)CCC(F)(F)F)c(F)ccc2c1Oc1ncccc1-c1ccnc(N[C@H]2CCCNC2)n1 [Example 276, (S)-3,3,3-Trifluoro-N-(2-fluoro-6-methyl-5-((3-(2-(piperidin-3-ylamino)pyrimidin-4-yl)pyridin-2-yl)oxy)naphthalen-1-yl)propane-1-sulfonamide hydrochloride]	44.1
Cc1ccc2c(NC(=O)C3CC3C(C)C)cccc2c1Oc1ncccc1-c1ccnc(N[C@H]2CCCNC2)n1 (single isomer, unassigned) [Example 230]	80
Cc1ccc2c(NC[C@H](O)C(F)(F)F)cccc2c1Oc1ncccc1-c1ccnc(N[C@H]2CCCNC2)n1 [Example 299]	8.58
CCC1CC(=O)N(c2cccc3c(Oc4ncccc4-c4ccnc(N[C@H]5CCCNC5)n4)c(C)ccc23)C1 (single isomer, unassigned) [Example 356]	279
Cc1ccc2c(NS(=O)(=O)Cc3ccc(F)cc3)cccc2c1Oc1ncccc1-c1ccnc(N[C@H]2CCCNC2)n1 [Example 150, (S)-1-(4-Fluorophenyl)-N-(6-methyl-5-((3-(2-(piperidin-3-ylamino)pyrimidin-4-yl)pyridin-2-yl)oxy)naphthalen-1-yl)methanesulfonamide]	25
CCCCS(=O)(=O)Nc1cccc2c(Oc3ncccc3-c3ccnc(N[C@H]4CCCNC4)n3)c(C)ccc12 [Example 136, (S)—N-(6-Methyl-5-((3-(2-(piperidin-3-ylamino)pyrimidin-4-yl)pyridin-2-yl)oxy)naphthalen-1-yl) butane-1-sulfonamide]	297
Cc1ccc2c(NC(=O)[C@@H]3CC34CCCC4)cccc2c1Oc1ncccc1-c1ccnc(N[C@H]2CCCNC2)n1 (single isomer, unassigned) [Example 254]	69
Cc1ccc2c(NCC[C@@H](C)O)cccc2c1Oc1ncccc1-c1ccnc(N[C@H]2CCCNC2)n1 (single isomer, unassigned) [Example 201]	133
Cc1ccc2c(NS(=O)(=O)CCC3CC3)cccc2c1Oc1ncccc1-c1ccnc(N[C@H]2CCCNC2)n1 [Example 129, (S)-2-Cyclopropyl-N-(6-methyl-5-((3-(2-(piperidin-3-ylamino)pyrimidin-4-yl)pyridin-2-yl)oxy)naphthalen-1-yl)ethanesulfonamide]	301
C=CS(=O)(=O)Nc1cccc2c(Oc3ncccc3-c3ccnc(N[C@H]4CCCNC4)n3)c(C)ccc12 [Example 147, (S)—N-(6-Methyl-5-((3-(2-(piperidin-3-ylamino)pyrimidin-4-yl)pyridin-2-yl)oxy)naphthalen-1-yl)ethenesulfonamide]	139
Cc1ccc2c(NS(=O)(=O)CC(F)(F)F)cccc2c1Oc1ncccc1-c1ccnc(N[C@H]2CCCNC2)n1 [Example 122, (S)-2,2,2-Trifluoro-N-(6-methyl-5-((3-(2-(piperidin-3-ylamino)pyrimidin-4-yl)pyridin-2-yl)oxy)naphthalen-1-yl)ethane-1-sulfonamide hydrochloride]	105
CCn1ccc(Nc2cccc3c(Oc4ncccc4-c4ccnc(N[C@H]5CCCNC5)n4)c(C)ccc23)n1 [Example 272, (S)-4-(2-((5-((1-Ethyl-1H-pyrazol-3-yl)amino)-2-methylnaphthalen-1-yl)oxy)pyridin-3-yl)-N-(piperidin-3-yl)pyrimidin-2-amine]	463
Cc1ccc2c(NC(=O)[C@@H]3CCC(C)C3)cccc2c1Oc1ncccc1-c1ccnc(N[C@H]2CCCNC2)n1 (single isomer, unassigned) [Example 277]	171
Cc1ccc2c(NC(=O)[C@H]3CC3(C)C)cccc2c1Oc1ncccc1-c1ccnc(N[C@H]2CCCNC2)n1 (single isomer, unassigned) [Example 288]	185
Cc1ccc2c(NCC(C)C)cccc2c1Oc1ncccc1-c1ccnc(N[C@H]2CCCNC2)n1 [Example 349, (S)-4-(2-((5-(Isobutylamino)-2-methylnaphthalen-1-yl)oxy)pyridin-3-yl)-N-(piperidin-3-yl)pyrimidin-2-amine]	432
Cc1ccc2c(NC(=O)[C@@H]3C[C@H]3C)cccc2c1Oc1ncccc1-c1ccnc(N[C@H]2CCCNC2)n1 [Example 232, (1R,2R)-2-Methyl-N-(6-methyl-5-((3-(2-(((S)-piperidin-3-yl)amino)pyrimidin-4-yl)pyridin-2-yl)oxy)naphthalen-1-yl)cyclopropane-1-carboxamide]	136
Cc1ccc2c(N3CC[C@H](CF)C3=O)cccc2c1Oc1ncccc1-c1ccnc(N[C@H]2CCCNC2)n1 [Example 316, (S)-3-(Fluoromethyl)-1-(6-methyl-5-((3-(2-(((S)-piperidin-3-yl)amino)pyrimidin-4-yl)pyridin-2-yl)oxy)naphthalen-1-yl)pyrrolidin-2-one]	213
Cc1ccc2c(NS(=O)(=O)CF)cccc2c1Oc1ncccc1-c1ccnc(N[C@H]2CCCNC2)n1 [Example 159, (S)-1-Fluoro-N-(6-methyl-5-(3-(2-(piperidin-3-ylamino)pyrimidin-4-yl)pyridin-2-yloxy)naphthalen-1-yl)methanesulfonamide]	174
Cc1ccc2c(NC(=O)[C@@H]3CCCC3C)cccc2c1Oc1ncccc1-c1ccnc(N[C@H]2CCCNC2)n1 (single isomer, unassigned) [Example 373]	193
CCCS(=O)(=O)Nc1cccc2c(Oc3ncccc3-c3ccnc(N[C@H]4CC[C@H](C)NC4)n3)c(C)ccc12 (single isomer, unassigned) [Example 196]	162
Cc1cc(NS(=O)(=O)C2CCCC2)c2ccccc2c1Oc1ncccc1-c1ccnc(N[C@H]2CC[C@H](N)CC2)n1 [Example 119, N-(4-((3-(2-(((trans)-4-aminocyclohexyl)amino)pyrimidin-4-yl)pyridin-2-yl)oxy)-3-methylnaphthalen-1-yl)cyclopentanesulfonamide hydrochloride]	312

Same assay, conditions: Table 2; read-out: XBP1s-luc 293 LUC (IC50)

Compound	IC50 [nM]
Cc1ccc2c(NS(=O)(=O)Cc3cscn3)c(F)ccc2c1Oc1ncccc1-c1ccnc(N[C@H]2CCCNC2)n1 [Example 402, (S)—N-(2-Fluoro-6-methyl-5-((3-(2-(piperidin-3-ylamino)pyrimidin-4-yl)pyridin-2-yl)oxy)naphthalen-1-yl)-1-(thiazol-4-yl)methanesulfonamide hydrochloride]	51
Cc1ccc2c(NCC(C#N)C(C)C)cccc2c1Oc1ncccc1-c1ccnc(N[C@H]2CCCNC2)n1 (single isomer, unassigned) [Example 422]	83
Cc1ccc2c(NS(=O)(=O)CC(F)(F)F)c(F)ccc2c1Oc1ncccc1-c1ccnc(N[C@@H]2CNC[C@@H](F)C2)n1 (single isomer, unassigned) [Example 444, hydrochloride]	19
Cc1ccc2c(NS(=O)(=O)Cc3ccc(C(F)F)cc3)c(F)ccc2c1Oc1ncccc1-c1ccnc(N[C@H]2CCCNC2)n1 [Example 438, (S)-1-(4-(Difluoromethyl)phenyl)-N-(2-fluoro-6-methyl-5-((3-(2-(piperidin-3-ylamino)pyrimidin-4-yl)pyridin-2-yl)oxy)naphthalen-1-yl)methanesulfonamide hydrochloride]	5
Cc1ccc2c(NS(=O)(=O)CCCF)c(F)ccc2c1Oc1ncccc1-c1ccnc(N[C@H]2CCCNC2)n1 [Example 406, (S)-3-Fluoro-N-(2-fluoro-6-methyl-5-((3-(2-(piperidin-3-ylamino)pyrimidin-4-yl)pyridin-2-yl)oxy)naphthalen-1-yl)propane-1-sulfonamide hydrochloride]	31
Cc1ccc2c(NS(=O)(=O)CC3(F)CC3)c(F)ccc2c1Oc1ncccc1-c1ccnc(N[C@H]2CCCNC2)n1 [Example 453, (S)—N-(2-Fluoro-6-methyl-5-((3-(2-(piperidin-3-ylamino)pyrimidin-4-yl)pyridin-2-yl)oxy)naphthalen-1-yl)-1-(1-fluorocyclopropyl)methanesulfonamide hydrochloride]	18
O=S(=O)(Cc1ccccc1)Nc1cccc2c(Oc3ncccc3-c3ccnc(N[C@H]4CCCNC4)n3)cccc12 [Example 452, (S)-1-Phenyl-N-(5-((3-(2-(piperidin-3-ylamino)pyrimidin-4-yl)pyridin-2-yl)oxy)naphthalen-1-yl)methanesulfonamide]	19
Cc1ccc2c(N[C@@H]3CCCC[C@H]3O)cccc2c1Oc1ncccc1-c1ccnc(N[C@H]2CCCNC2)n1 (single isomer, unassigned) [Example 446, hydrochloride]	67
Cc1ccc2c(NS(=O)(=O)Cc3ccccc3F)c(F)ccc2c1Oc1ncccc1-c1ccnc(N[C@@H]2CNC[C@H](C)C2)n1 [Example 477, N-(2-Fluoro-6-methyl-5-((3-(2-(((3S,5R)-5-methylpiperidin-3-yl)amino)pyrimidin-4-yl)pyridin-2-yl)oxy)naphthalen-1-yl)-1-(2-fluorophenyl)methanesulfonamide]	7
Cc1ccc2c(NS(=O)(=O)CC3(F)CC3)c(F)ccc2c1Oc1ncccc1-c1ccnc(N[C@@H]2CNC[C@H](C)C2)n1 [Example 487, N-(2-Fluoro-6-methyl-5-((3-(2-(((3S,5R)-5-methylpiperidin-3-yl)amino)pyrimidin-4-yl)pyridin-2-yl)oxy)naphthalen-1-yl)-1-(1-fluorocyclopropyl)methanesulfonamide hydrochloride]	9
